The nature of data set [1]: in vitro. The following applies: Mouse liver microsomes.
Data set [2] relates to Staphylococcus epidermidis MSSE 15-3. As to the kind of experiment: microbe, parasite or virus in culture. Details: species or system gram-positive clinical isolates. The note with it: Staphylococcus epidermidis, MSSE153, read-out: MIC(μg/ml) / 1b.
Data set [3] has as its system Staphylococcus epidermidis MSSE 15-4. Nature of the data set: microbe, parasite or virus in culture. The following applies: Staphylococcus epidermidis, MSSE154, read-out: MIC(μg/ml) / 1b. Details: species or system gram-positive clinical isolates.
The test system of data set [4] is Staphylococcus epidermidis MSSE 15-61. As to the kind of experiment: microbe, parasite or virus in culture. Details: species or system gram-positive clinical isolates. The note with it: Staphylococcus epidermidis, MSSE1561, read-out: MIC(μg/ml) / 1b.
Data set [5] has as its system Staphylococcus epidermidis MSSE 15-1. As to the kind of experiment: microbe, parasite or virus in culture. The following applies: Staphylococcus epidermidis, MSSE151, read-out: MIC(μg/ml) / 1b. Details: species or system gram-positive clinical isolates.
Data set [6] deals with Staphylococcus epidermidis MSSE 15-59. As to the kind of experiment: microbe, parasite or virus in culture. Details: species or system gram-positive clinical isolates. The note with it: Staphylococcus epidermidis, MSSE1559, read-out: MIC(μg/ml) / 1b.
Data set [7] deals with Staphylococcus epidermidis MSSE 15-2. As to the kind of experiment: microbe, parasite or virus in culture. The note with it: Staphylococcus epidermidis, MSSE152, read-out: MIC(μg/ml) / 1b. On the set-up: species or system gram-positive clinical isolates.
The subject of data set [8] is Staphylococcus epidermidis MSSE 15-58. Nature of the data set: microbe, parasite or virus in culture. On the set-up: species or system gram-positive clinical isolates. The following applies: Staphylococcus epidermidis, MSSE1558, read-out: MIC(μg/ml) / 1b.
Data set [9] deals with Staphylococcus epidermidis MSSE 15-64. Nature of the data set: microbe, parasite or virus in culture. Details: species or system gram-positive clinical isolates. The following applies: Staphylococcus epidermidis, MSSE1564, read-out: MIC(μg/ml) / 1b.

Consider one compound from article doi:10.1101/2024.09.05.611349v1 (biorxiv, 2024).

Values after ≈ are worked out from the molar mass of the structure shown.

Consider `CCCCCOc1ccc(C(=O)NNC(=S)NC(C)=O)cc1` [1b, N-(2-(4-(n-pentoxy)benzoyl)hydrazine-1-carbonothioyl)acetamide], for which the “Mouse liver microsomes T1/2” value in data set [1] is on record as 28.3 min. The MIC in data set [2], in [3], in [4], in [5], in data set [6] and in data set [7] was 1 µg/mL (≈ 3.09 µM) in each case. Moreover, the MIC in data set [8] is 1 µg/mL (≈ 3.09 µM); in data set [9], 8 µg/mL (≈ 24.7 µM).
